From ChEMBL document CHEMBL3272203, “Phosphorus-nitrogen compounds. 22. Synthesis and antitumor activity of arylsulfonylhydrazone analogues” (J Med Chem, 1978)

Key:
[1] = tested on: Ehrlich; test: Antitumor activity against mouse Ehrlich ascites carcinoma cells allografted in mouse assessed as host survival time at 100 mg/kg administered qd for 6 days beginning 24 hrs after tumor implantation relative to control; assay type: functional
[2] = tested on: Sarcoma-180; test: Antitumor activity against mouse Sarcoma 180 cells allografted in mouse assessed as host survival time at 100 mg/kg administered qd for 6 days beginning 24 hrs after tumor implantation relative to control; assay type: functional
[3] = tested on: P388; test: Antitumor activity against mouse P388 cells allografted in mouse assessed as host survival time at 100 mg/kg administered qd for 9 days beginning 24 hrs after tumor implantation relative to control; assay type: functional
[4] = tested on: Ehrlich; test: Antitumor activity against mouse Ehrlich ascites carcinoma cells allografted in mouse assessed as host survival time at 40 mg/kg administered qd for 6 days beginning 24 hrs after tumor implantation relative to control in presence of 8 mg/kg CuCl2; assay type: functional
[5] = tested on: Sarcoma-180; test: Antitumor activity against mouse Sarcoma 180 cells allografted in mouse assessed as host survival time at 40 mg/kg administered qd for 6 days beginning 24 hrs after tumor implantation relative to control in presence of 8 mg/kg CuCl2; assay type: functional
[6] = tested on: P388; test: Antitumor activity against mouse P388 cells allografted in mouse assessed as host survival time at 40 mg/kg administered qd for 9 days beginning 24 hrs after tumor implantation relative to control in presence of 8 mg/kg CuCl2; assay type: functional
[7] = Metal chelating activity of the compound assessed as Fe2+-complex formation by absorbance analysis; assay type: physicochemical
[8] = Metal chelating activity of the compound assessed as Co2+-complex formation by absorbance analysis; assay type: physicochemical
[9] = Octanol-water partition coefficient, log P of the compound; assay type: physicochemical
[10] = tested on: Ehrlich; test: Antitumor activity against mouse Ehrlich ascites carcinoma cells allografted in mouse assessed as host survival time at 50 mg/kg administered qd for 6 days beginning 24 hrs after tumor implantation relative to control in presence of 8 mg/kg CuCl2; assay type: functional
[11] = tested on: Sarcoma-180; test: Antitumor activity against mouse Sarcoma 180 cells allografted in mouse assessed as host survival time at 50 mg/kg administered qd for 6 days beginning 24 hrs after tumor implantation relative to control in presence of 8 mg/kg CuCl2; assay type: functional
[12] = tested on: P388; test: Antitumor activity against mouse P388 cells allografted in mouse assessed as host survival time at 50 mg/kg administered qd for 9 days beginning 24 hrs after tumor implantation relative to control in presence of 8 mg/kg CuCl2; assay type: functional
[13] = Metal chelating activity of the compound assessed as cupric ion complex formation by absorbance analysis; assay type: physicochemical
[14] = Metal chelating activity of the compound assessed as cupric ion complex formation at drug:cupric chloride ratio of 2:1 by absorbance analysis; assay type: physicochemical
[15] = Metal chelating activity of the compound assessed as cupric ion complex formation at drug:cupric chloride ratio of 1:1 by absorbance analysis; assay type: physicochemical

SMILES	T/C [1]	T/C [2]	T/C [3]	T/C [4]	T/C [5]	T/C [6]	Activity [7]	Activity [8]	logP [9]	T/C [10]	T/C [11]	T/C [12]	Activity [13]	Activity [14]	Activity [15]
[O-][n+]1ccccc1/C=N/NP(=S)(N/N=C/c1cccc[n+]1[O-])Oc1ccccc1	123%	89%	103%	166%	85%	89%	Not Active	Not Active	1.28	–	–	–	–	–	–
S=P(N/N=C/c1ccccn1)(N/N=C/c1ccccn1)c1ccccc1	190%	81%	108%	–	–	–	–	–	–	150%	87%	95%	–	–	–
CCOP(=O)(N/N=C/c1cccc[n+]1[O-])OCC	160%	–	108%	98%	–	78%	Not Active	Not Active	–	–	–	–	Not Active	–	–
[O-][n+]1ccccc1/C=N/NP(=S)(Oc1ccccc1)Oc1ccccc1	144%	93%	113%	204%	106%	94%	Not Active	Not Active	–	–	–	–	–	–	–
O.O=P(O)(N/N=C/c1cccc[n+]1[O-])Oc1ccccc1	118%	107%	–	164%	87%	–	Not Active	Active	-0.76	–	–	–	–	Active	–
O.O=P(O)(N/N=C/c1ccccn1)Oc1ccccc1	115%	95%	103%	163%	79%	99%	Not Active	Active	–	–	–	–	–	–	Active
S=P(N/N=C/c1ccccn1)(N/N=C/c1ccccn1)Oc1ccccc1	114%	93%	87%	269%	141%	97%	–	–	1.62	–	–	–	–	–	–
CCOP(=S)(N/N=C/c1cccc[n+]1[O-])OCC	108%	96%	111%	135%	126%	73%	Not Active	Not Active	–	–	–	–	–	–	–
[O-][n+]1ccccc1/C=N/NP(=S)(N/N=C/c1cccc[n+]1[O-])c1ccccc1	104%	79%	114%	–	–	–	Not Active	Not Active	–	204%	106%	87%	–	–	–
O=P(N/N=C/c1ccccn1)(Oc1ccccc1)Oc1ccccc1	–	–	117%	–	–	92%	–	–	–	–	–	–	–	Active	–
O=P(N/N=C/c1cccc[n+]1[O-])(Oc1ccccc1)Oc1ccccc1	–	–	111%	–	–	–	–	–	–	–	–	95%	–	–	–
S=P(N/N=C/c1ccccn1)(Oc1ccccc1)Oc1ccccc1	–	–	102%	–	–	94%	–	–	–	–	–	–	–	–	–
[O-][n+]1ccccc1	–	–	–	–	–	–	–	–	-1.69	–	–	–	–	–	–
O=P1(N(CCCl)CCCl)NCCCO1 (centres undefined) [CYCLOPHOSPHAMIDE ANHYDROUS]	–	–	–	–	–	–	–	–	0.63	–	–	–	–	–	–
